Measurements published in US20020111274A1, “1-alkyl-3-[1-(substituted phenyl) benzotriazol-6-yl] uracils” (BASF Aktiengesellschaft, priority 2000, published 2002).

Legend:
Set-up in all cases: scale not given here
[1] = test system: TRZAWR Wheat, Winter, cv Riband; assay: Postemergence herbicidal evaluation, TRZAWR; format: in vivo, Triticum aestivum; settings: postemergence spray, rated about two-three weeks after treatment
Summary of the method: (§1)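 Plants are raised for roughly two weeks, then treated postemergence with compound dispersed in acetone/water (80/20) plus 1.0% seed oil adjuvant, at rates of about 0.006 kg to 0.400 kg per hectare. After greenhouse care, damage is scored two to three weeks later.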

CASOB Sicklepod [2] = assay: Preemergence herbicidal evaluation, CASOB; format: in vivo, Cassia obtusifolia, L.; settings: preemergence
Summary of the method: (§2)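 Seeds mixed with potting soil in cups, then sprayed preemergence with aqueous acetone test solution at about 0.013 to 0.800 kg per hectare equivalent. Cups kept under standard greenhouse care; plants rated on a visual scale four to five weeks after treatment.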

[3] = test system: CHEAL Lambsquarters, Common; assay: Preemergence herbicidal evaluation, CHEAL; format: in vivo, Chenopodium album, L.; settings: preemergence
Summary of the method: as §2

GALAP Galium [4] = assay: Postemergence herbicidal evaluation, GALAP; format: in vivo, Galium aparine; settings: postemergence spray, rated about two-three weeks after treatment
Summary of the method: as §1

GLXMAW Soybean, Williams [5] = assay: Postemergence herbicidal evaluation, GLXMAW; format: in vivo, Glycine max, (L.) Merr. cv Williams; settings: postemergence spray, rated about two-three weeks after treatment
Summary of the method: as §1

ORYSAT Rice, Tebonnet [6] = assay: Postemergence herbicidal evaluation, ORYSAT; format: in vivo, Oryza sativa, (L.); settings: postemergence spray, rated about two-three weeks after treatment
Summary of the method: as §1

SETVI Foxtail, Green [7] = assay: Preemergence herbicidal evaluation, SETVI; format: in vivo, Setaria viridis, (L.) Beau; settings: preemergence
Summary of the method: as §2

GALAP Galium [8] = assay: Preemergence herbicidal evaluation, GALAP; format: in vivo, Galium aparine; settings: preemergence
Summary of the method: as §2

[9] = test system: IPOHE Morningglory, Ivyleaf; assay: Postemergence herbicidal evaluation, IPOHE; format: in vivo, Ipomoea hederacea, (L.) Jacq.; settings: postemergence spray, rated about two-three weeks after treatment
Summary of the method: as §1

ABUTH Velvetleaf [10] = assay: Postemergence herbicidal evaluation, ABUTH; format: in vivo, Abutilon theophrasti, Medic.; settings: postemergence spray, rated about two-three weeks after treatment
Summary of the method: as §1

[11] = test system: TRZAWR Wheat, Winter, cv Riband; assay: Preemergence herbicidal evaluation, TRZAWR; format: in vivo, Triticum aestivum; settings: preemergence
Summary of the method: as §2

ABUTH Velvetleaf [12] = assay: Preemergence herbicidal evaluation, ABUTH; format: in vivo, Abutilon theophrasti, Medic.; settings: preemergence
Summary of the method: as §2

GLXMAW Soybean, Williams [13] = assay: Preemergence herbicidal evaluation, GLXMAW; format: in vivo, Glycine max, (L.) Merr. cv Williams; settings: preemergence
Summary of the method: as §2

AMBEL Ragweed, Common [14] = assay: Postemergence herbicidal evaluation, AMBEL; format: in vivo, Ambrosia artemisifolia, L.; settings: postemergence spray, rated about two-three weeks after treatment
Summary of the method: as §1

ORYSAT Rice, Tebonnet [15] = assay: Preemergence herbicidal evaluation, ORYSAT; format: in vivo, Oryza sativa, (L.); settings: preemergence
Summary of the method: as §2

AMBEL Ragweed, Common [16] = assay: Preemergence herbicidal evaluation, AMBEL; format: in vivo, Ambrosia artemisifolia, L.; settings: preemergence
Summary of the method: as §2

ZEAMX Corn, Field [17] = assay: Preemergence herbicidal evaluation, ZEAMX; format: in vivo, Zea mays, L. (Sammel-Bezeichnung); settings: preemergence
Summary of the method: as §2

[18] = test system: CHEAL Lambsquarters, Common; assay: Postemergence herbicidal evaluation, CHEAL; format: in vivo, Chenopodium album, L.; settings: postemergence spray, rated about two-three weeks after treatment
Summary of the method: as §1

ECHOG Barnyardgrass [19] = assay: Preemergence herbicidal evaluation, ECHOG; format: in vivo, Echinochloa crus-galli, (L.) Beau; settings: preemergence
Summary of the method: as §2

CASOB Sicklepod [20] = assay: Postemergence herbicidal evaluation, CASOB; format: in vivo, Cassia obtusifolia, L.; settings: postemergence spray, rated about two-three weeks after treatment
Summary of the method: as §1

ECHOG Barnyardgrass [21] = assay: Postemergence herbicidal evaluation, ECHOG; format: in vivo, Echinochloa crus-galli, (L.) Beau; settings: postemergence spray, rated about two-three weeks after treatment
Summary of the method: as §1

[22] = test system: IPOHE Morningglory, Ivyleaf; assay: Preemergence herbicidal evaluation, IPOHE; format: in vivo, Ipomoea hederacea, (L.) Jacq.; settings: preemergence
Summary of the method: as §2

ZEAMX Corn, Field [23] = assay: Postemergence herbicidal evaluation, ZEAMX; format: in vivo, Zea mays, L. (Sammel-Bezeichnung); settings: postemergence spray, rated about two-three weeks after treatment
Summary of the method: as §1

SETVI Foxtail, Green [24] = assay: Postemergence herbicidal evaluation, SETVI; format: in vivo, Setaria viridis, (L.) Beau; settings: postemergence spray, rated about two-three weeks after treatment
Summary of the method: as §1

COc1ccc(C)c(-n2nnc3cc(F)c(-n4c(=O)cc(C(F)(F)F)n(C)c4=O)cc32)c1 [Example 22]
Postemergence herbicidal rating TRZAWR ([1]; 0.008 kg/ha): 3.0
Postemergence herbicidal rating TRZAWR ([1]; 0.016 kg/ha): 3.5
Postemergence herbicidal rating TRZAWR ([1]; 0.032 kg/ha): 4.0
Postemergence herbicidal rating TRZAWR ([1]; 0.062 kg/ha): 4.5
CASOB herbicidal rating (CASOB Sicklepod [2]; rate 0.016 kg/ha): 0.0
CASOB herbicidal rating (CASOB Sicklepod [2]; rate 0.032 kg/ha): 0.0
CASOB herbicidal rating (CASOB Sicklepod [2]; rate 0.062 kg/ha): 0.0
CASOB herbicidal rating (CASOB Sicklepod [2]; rate 0.125 kg/ha): 0.0
CHEAL herbicidal rating ([3]; rate 0.016 kg/ha): 9.0
CHEAL herbicidal rating ([3]; rate 0.032 kg/ha): 9.0
CHEAL herbicidal rating ([3]; rate 0.062 kg/ha): 9.0
CHEAL herbicidal rating ([3]; rate 0.125 kg/ha): 9.0
Postemergence herbicidal rating GALAP (GALAP Galium [4]; 0.008 kg/ha): 0.0
Postemergence herbicidal rating GALAP (GALAP Galium [4]; 0.016 kg/ha): 0.0
Postemergence herbicidal rating GALAP (GALAP Galium [4]; 0.032 kg/ha): 3.0
Postemergence herbicidal rating GALAP (GALAP Galium [4]; 0.062 kg/ha): 5.0
Postemergence herbicidal rating GLXMAW (GLXMAW Soybean, Williams [5]; 0.008 kg/ha): 4.0
Postemergence herbicidal rating GLXMAW (GLXMAW Soybean, Williams [5]; 0.016 kg/ha): 4.5
Postemergence herbicidal rating GLXMAW (GLXMAW Soybean, Williams [5]; 0.032 kg/ha): 4.0
Postemergence herbicidal rating GLXMAW (GLXMAW Soybean, Williams [5]; 0.062 kg/ha): 5.0
Postemergence herbicidal rating ORYSAT (ORYSAT Rice, Tebonnet [6]; 0.008 kg/ha): 2.0
Postemergence herbicidal rating ORYSAT (ORYSAT Rice, Tebonnet [6]; 0.016 kg/ha): 2.5
Postemergence herbicidal rating ORYSAT (ORYSAT Rice, Tebonnet [6]; 0.032 kg/ha): 3.0
Postemergence herbicidal rating ORYSAT (ORYSAT Rice, Tebonnet [6]; 0.062 kg/ha): 3.0
SETVI herbicidal rating (SETVI Foxtail, Green [7]; rate 0.016 kg/ha): 0.0
SETVI herbicidal rating (SETVI Foxtail, Green [7]; rate 0.032 kg/ha): 2.0
SETVI herbicidal rating (SETVI Foxtail, Green [7]; rate 0.062 kg/ha): 7.0
SETVI herbicidal rating (SETVI Foxtail, Green [7]; rate 0.125 kg/ha): 9.0
GALAP herbicidal rating (GALAP Galium [8]; rate 0.016 kg/ha): 0.0
GALAP herbicidal rating (GALAP Galium [8]; rate 0.032 kg/ha): 0.0
GALAP herbicidal rating (GALAP Galium [8]; rate 0.062 kg/ha): 0.0
GALAP herbicidal rating (GALAP Galium [8]; rate 0.125 kg/ha): 0.0
Postemergence herbicidal rating IPOHE ([9]; 0.008 kg/ha): 2.0
Postemergence herbicidal rating IPOHE ([9]; 0.016 kg/ha): 2.0
Postemergence herbicidal rating IPOHE ([9]; 0.032 kg/ha): 9.0
Postemergence herbicidal rating IPOHE ([9]; 0.062 kg/ha): 2.0
Postemergence herbicidal rating ABUTH (ABUTH Velvetleaf [10]; 0.008 kg/ha): 9.0
Postemergence herbicidal rating ABUTH (ABUTH Velvetleaf [10]; 0.016 kg/ha): 9.0
Postemergence herbicidal rating ABUTH (ABUTH Velvetleaf [10]; 0.032 kg/ha): 9.0
Postemergence herbicidal rating ABUTH (ABUTH Velvetleaf [10]; 0.062 kg/ha): 9.0
TRZAWR herbicidal rating ([11]; rate 0.016 kg/ha): 0.0
TRZAWR herbicidal rating ([11]; rate 0.032 kg/ha): 1.0
TRZAWR herbicidal rating ([11]; rate 0.062 kg/ha): 2.0
TRZAWR herbicidal rating ([11]; rate 0.125 kg/ha): 4.0
ABUTH herbicidal rating (ABUTH Velvetleaf [12]; rate 0.016 kg/ha): 0.0
ABUTH herbicidal rating (ABUTH Velvetleaf [12]; rate 0.032 kg/ha): 9.0
ABUTH herbicidal rating (ABUTH Velvetleaf [12]; rate 0.062 kg/ha): 9.0
ABUTH herbicidal rating (ABUTH Velvetleaf [12]; rate 0.125 kg/ha): 7.0
GLXMAW herbicidal rating (GLXMAW Soybean, Williams [13]; rate 0.016 kg/ha): 0.0
GLXMAW herbicidal rating (GLXMAW Soybean, Williams [13]; rate 0.032 kg/ha): 0.0
GLXMAW herbicidal rating (GLXMAW Soybean, Williams [13]; rate 0.062 kg/ha): 0.0
GLXMAW herbicidal rating (GLXMAW Soybean, Williams [13]; rate 0.125 kg/ha): 0.0
Postemergence herbicidal rating AMBEL (AMBEL Ragweed, Common [14]; 0.008 kg/ha): 0.0
Postemergence herbicidal rating AMBEL (AMBEL Ragweed, Common [14]; 0.016 kg/ha): 0.0
Postemergence herbicidal rating AMBEL (AMBEL Ragweed, Common [14]; 0.032 kg/ha): 2.0
Postemergence herbicidal rating AMBEL (AMBEL Ragweed, Common [14]; 0.062 kg/ha): 3.0
ORYSAT herbicidal rating (ORYSAT Rice, Tebonnet [15]; rate 0.016 kg/ha): 0.0
ORYSAT herbicidal rating (ORYSAT Rice, Tebonnet [15]; rate 0.032 kg/ha): 0.0
ORYSAT herbicidal rating (ORYSAT Rice, Tebonnet [15]; rate 0.062 kg/ha): 0.0
ORYSAT herbicidal rating (ORYSAT Rice, Tebonnet [15]; rate 0.125 kg/ha): 0.0
AMBEL herbicidal rating (AMBEL Ragweed, Common [16]; rate 0.016 kg/ha): 0.0
AMBEL herbicidal rating (AMBEL Ragweed, Common [16]; rate 0.032 kg/ha): 0.0
AMBEL herbicidal rating (AMBEL Ragweed, Common [16]; rate 0.062 kg/ha): 0.0
AMBEL herbicidal rating (AMBEL Ragweed, Common [16]; rate 0.125 kg/ha): 0.0
ZEAMX herbicidal rating (ZEAMX Corn, Field [17]; rate 0.016 kg/ha): 0.0
ZEAMX herbicidal rating (ZEAMX Corn, Field [17]; rate 0.032 kg/ha): 2.0
ZEAMX herbicidal rating (ZEAMX Corn, Field [17]; rate 0.062 kg/ha): 4.0
ZEAMX herbicidal rating (ZEAMX Corn, Field [17]; rate 0.125 kg/ha): 6.0
Postemergence herbicidal rating CHEAL ([18]; 0.008 kg/ha): 9.0
Postemergence herbicidal rating CHEAL ([18]; 0.016 kg/ha): 9.0
Postemergence herbicidal rating CHEAL ([18]; 0.032 kg/ha): 3.0
Postemergence herbicidal rating CHEAL ([18]; 0.062 kg/ha): 4.0
ECHCG herbicidal rating (ECHOG Barnyardgrass [19]; rate 0.016 kg/ha): 0.0
ECHCG herbicidal rating (ECHOG Barnyardgrass [19]; rate 0.032 kg/ha): 0.0
ECHCG herbicidal rating (ECHOG Barnyardgrass [19]; rate 0.062 kg/ha): 2.0
ECHCG herbicidal rating (ECHOG Barnyardgrass [19]; rate 0.125 kg/ha): 7.0
Postemergence herbicidal rating CASOB (CASOB Sicklepod [20]; 0.008 kg/ha): 0.0
Postemergence herbicidal rating CASOB (CASOB Sicklepod [20]; 0.016 kg/ha): 0.0
Postemergence herbicidal rating CASOB (CASOB Sicklepod [20]; 0.032 kg/ha): 0.0
Postemergence herbicidal rating CASOB (CASOB Sicklepod [20]; 0.062 kg/ha): 0.0
Postemergence herbicidal rating ECHCG (ECHOG Barnyardgrass [21]; 0.008 kg/ha): 0.0
Postemergence herbicidal rating ECHCG (ECHOG Barnyardgrass [21]; 0.016 kg/ha): 0.0
Postemergence herbicidal rating ECHCG (ECHOG Barnyardgrass [21]; 0.032 kg/ha): 0.0
Postemergence herbicidal rating ECHCG (ECHOG Barnyardgrass [21]; 0.062 kg/ha): 0.0
IPOHE herbicidal rating ([22]; rate 0.016 kg/ha): 0.0
IPOHE herbicidal rating ([22]; rate 0.032 kg/ha): 0.0
IPOHE herbicidal rating ([22]; rate 0.062 kg/ha): 0.0
IPOHE herbicidal rating ([22]; rate 0.125 kg/ha): 0.0
Postemergence herbicidal rating ZEAMX (ZEAMX Corn, Field [23]; 0.008 kg/ha): 4.5
Postemergence herbicidal rating ZEAMX (ZEAMX Corn, Field [23]; 0.016 kg/ha): 4.5
Postemergence herbicidal rating ZEAMX (ZEAMX Corn, Field [23]; 0.032 kg/ha): 4.0
Postemergence herbicidal rating ZEAMX (ZEAMX Corn, Field [23]; 0.062 kg/ha): 4.5
Postemergence herbicidal rating SETVI (SETVI Foxtail, Green [24]; 0.008 kg/ha): 0.0
Postemergence herbicidal rating SETVI (SETVI Foxtail, Green [24]; 0.016 kg/ha): 0.0
Postemergence herbicidal rating SETVI (SETVI Foxtail, Green [24]; 0.032 kg/ha): 0.0
Postemergence herbicidal rating SETVI (SETVI Foxtail, Green [24]; 0.062 kg/ha): 0.0
